Experimental data from the CombiSolv-Exp solvation set (Vermeire and Green 2021).

Test: solvent given as SMILES

C=CC=C
Conditions | solvation free energy, 298 K [kcal/mol]
in C1CCC2CCCCC2C1 | -2.17
in C1COCCO1 | -2.03
in C=Cc1ccccc1 | -2.36
in CC1COC(=O)O1 | -1.97
in CC#N | -2.15
in CC(=O)N(C)C | -2.56
in CC(C)(C)O | -2.07
in CC(C)=O | -2.74
in CC(C)CCO | -2.09
in CC(C)CO | -2.06
in CC(C)O | -2.09
in CCC(C)(C)O | -2.16
in CCC(C)CO | -2.06
in CCC(C)O | -2.07
in CCC(O)CC | -2.09
in CCCC(C)O | -2.07
in CCCCCCC | -2.67
in CCCCCCCCCCCCCCCC | -2.1
in CCCCCO | -2.11
in CCCCO | -2.11
in CCCO | -2.16
in CCOC(C)=O | -2.84
in CCOCC | -2.72
in CN1CCCC1=O | -2.36
in CN(C)C=O | -2.29
in CN(C)P(=O)(N(C)C)N(C)C | -2.46
in CO | -2.14
in COC(C)=O | -2.26
in COCCOCCOCCOC | -2.05
in CS(C)=O | -1.8
in Cc1ccc(C)cc1 | -2.45
in Cc1cccc(C)c1 | -2.48
in Cc1ccccc1C | -2.46
in ClCCl | -2.83
in Nc1ccccc1 | -2.06
in O | 0.6
in OCCCOCCCO | -1.73
in OCCO | -1.35
in OCc1ccccc1 | -1.95

CCCCCC=CCC=CCCCCCCCC(=O)OC
Conditions | solvation free energy, 298 K [kcal/mol]
in O | -2.48

Clc1ccc(-c2cc(Cl)c(Cl)c(Cl)c2)cc1Cl
Conditions | solvation free energy, 298 K [kcal/mol]
in O | -3.79

CC(=O)OCCC(C)C
Conditions | solvation free energy, 298 K [kcal/mol]
in CCCCCCCCCCCCCCCC | -4.96
in CCCCCCCCO | -5.34
in O | -2.29
in [2H]O[2H] | -2.36

C1COCCO1
Conditions | solvation free energy, 298 K [kcal/mol]
in Brc1ccccc1 | -5.08
in C1CCCCC1 | -4.15
in C1CCOC1 | -5.11
in CC1COC(=O)O1 | -4.98
in CC#N | -5.28
in CC(=O)N(C)C | -4.98
in CC(=O)O | -5.82
in CC(=O)c1ccccc1 | -5.03
in CC(C)(C)Cl | -4.78
in CC(C)(C)O | -4.79
in CC(C)=O | -5.07
in CC(C)CC(C)(C)C | -4.01
in CC(C)CCCC(C)CCCC(C)CCCCC(C)CCCC(C)CCCC(C)C | -3.8
in CC(C)CCO | -4.54
in CC(C)O | -4.55
in CC(C)OC(C)C | -4.39
in CCBr | -5.21
in CCC(C)=O | -5.01
in CCC(C)Cl | -4.7
in CCCC#N | -5.03
in CCCCC | -4.02
in CCCCCC | -4.06
in CCCCCCC | -4.01
in CCCCCCCCCC | -3.97
in CCCCCCCCCCCCCCCC | -3.81
in CCCCCl | -4.8
in CCCCN | -4.93
in CCCCN(C=O)CCCC | -4.58
in CCCCO | -4.56
in CCCCOCCCC | -4.31
in CCCO | -4.51
in CCN(CC)CC | -4.35
in CCO | -4.68
in CCOC(C)=O | -5.01
in CCOCC | -4.62
in CCOCCOCCOCC | -4.77
in CCOP(=O)(OCC)OCC | -4.63
in CCOc1ccccc1 | -4.85
in CN1CCCC1=O | -4.97
in CN1CCN(C)C1=O | -4.62
in CN(C)C=O | -5.06
in CN(C)P(=O)(N(C)C)N(C)C | -4.82
in CNC(C)=O | -4.67
in CNC=O | -4.87
in CO | -4.9
in COCCO | -4.92
in COc1ccccc1 | -5.06
in CS(C)=O | -4.84
in Cc1ccc(C)cc1 | -4.8
in Cc1cccc(C)n1 | -4.91
in Cc1cccc(O)c1 | -6.82
in Cc1ccccc1 | -4.91
in Cc1ccccn1 | -5.02
in ClC(Cl)(Cl)Cl | -4.95
in ClC(Cl)Cl | -6.11
in Clc1ccccc1 | -5.07
in FC(F)(F)C(F)(F)C(F)(F)C(F)(F)C(F)(F)C(F)(F)F | -2.75
in Fc1c(F)c(F)c(F)c(F)c1F | -4.93
in Fc1ccccc1 | -5.16
in ICI | -4.89
in Ic1ccccc1 | -4.94
in NC=O | -4.8
in Nc1ccccc1 | -5.65
in O | -5.06
in O=C1CCCCC1 | -4.98
in O=C1CCCO1 | -5.07
in O=CN1CCOCC1 | -4.73
in OCCO | -4.29
in OCCOCCOCCO | -3.88
in OCc1ccccc1 | -5.42
in S=C=S | -4.62
in [2H]O[2H] | -5.02
in c1ccc2ncccc2c1 | -4.87
in c1ccc(COCc2ccccc2)cc1 | -4.77
in c1ccccc1 | -5.16
in c1ccncc1 | -5.16

CC1=CC(=O)CC(C)(C)C1
Conditions | solvation free energy, 298 K [kcal/mol]
in O | -5.18
